Data from ChEMBL document CHEMBL1275557, “First countrywide survey of acquired metallo-beta-lactamases in gram-negative pathogens in Italy” (2008).
Converted amounts (≈) assume the structure as drawn.

Tests used:
Type in all cases: functional
Pseudomonas aeruginosa [1] = test: Antibacterial activity against VIM-1 producing Pseudomonas aeruginosa clone E isolate VA-06X-29 by Etest method
Pseudomonas aeruginosa [2] = test: Antibacterial activity against VIM-2 producing Pseudomonas aeruginosa clone B3 isolate PV-05X-02 by Etest method
Pseudomonas putida = test: Antibacterial activity against VIM-1 producing Pseudomonas putida isolate RM-11X-11 by Etest method
Pseudomonas aeruginosa [3] = test: Antibacterial activity against IMP-13 producing Pseudomonas aeruginosa clone C3 isolate PG-12X-03 by Etest method
Pseudomonas aeruginosa [4] = test: Antibacterial activity against VIM-2 producing Pseudomonas aeruginosa clone B3 isolate CR-04X-14 by Etest method
Enterobacter cloacae = test: Antibacterial activity against VIM-1 producing Enterobacter cloacae isolate TO-16X-51 by Etest method
Pseudomonas aeruginosa [5] = test: Antibacterial activity against VIM-1 producing Pseudomonas aeruginosa clone A3 isolate FG-17X-08 by Etest method
Pseudomonas aeruginosa [6] = test: Antibacterial activity against VIM-1 producing Pseudomonas aeruginosa clone F isolate RM-11X-09 by Etest method
Pseudomonas aeruginosa [7] = test: Antibacterial activity against IMP-13 producing Pseudomonas aeruginosa clone C2 isolate NA-14X-11 by Etest method
Pseudomonas aeruginosa [8] = test: Antibacterial activity against VIM-1 producing Pseudomonas aeruginosa clone G isolate NA-14X-13 by Etest method
Pseudomonas aeruginosa [9] = test: Antibacterial activity against VIM-1 producing Pseudomonas aeruginosa clone A1 isolate FG-17X-14 by Etest method
Pseudomonas aeruginosa [10] = test: Antibacterial activity against VIM-1 producing Pseudomonas aeruginosa clone D isolate VA-06X-69 by Etest method
Pseudomonas aeruginosa [11] = test: Antibacterial activity against VIM-2 producing Pseudomonas aeruginosa clone B2 isolate VA-06X-28 by Etest method
Pseudomonas aeruginosa [12] = test: Antibacterial activity against IMP-13 producing Pseudomonas aeruginosa clone C2 isolate NA-14X-12 by Etest method
Pseudomonas aeruginosa [13] = test: Antibacterial activity against VIM-1 producing Pseudomonas aeruginosa clone D1 isolate VA-06X-63 by Etest method
Pseudomonas aeruginosa [14] = test: Antibacterial activity against VIM-2 producing Pseudomonas aeruginosa clone B2 isolate VA-06X-20 by Etest method
Pseudomonas aeruginosa [15] = test: Antibacterial activity against VIM-1 producing Pseudomonas aeruginosa clone D2 isolate VA-06X-17 by Etest method
Pseudomonas aeruginosa [16] = test: Antibacterial activity against VIM-1 producing Pseudomonas aeruginosa clone A2 isolate NA-14X-21 by Etest method
Pseudomonas aeruginosa [17] = test: Antibacterial activity against VIM-2 producing Pseudomonas aeruginosa clone B2 isolate VA-06X-38 by Etest method
Pseudomonas aeruginosa [18] = test: Antibacterial activity against IMP-13 producing Pseudomonas aeruginosa clone C1 isolate AV-13X-28 by Etest method
Pseudomonas aeruginosa [19] = test: Antibacterial activity against VIM-1 producing Pseudomonas aeruginosa clone D2 isolate VA-06X-16 by Etest method
Pseudomonas aeruginosa [20] = test: Antibacterial activity against VIM-1 producing Pseudomonas aeruginosa clone D4 isolate VA-06X-47 by Etest method
Pseudomonas aeruginosa [21] = test: Antibacterial activity against metallo-beta-lactamase positive Pseudomonas aeruginosa assessed as percent susceptible isolates by Etest method
Pseudomonas aeruginosa [22] = test: Antibacterial activity against VIM-1 producing Pseudomonas aeruginosa clone A2 isolate NA-14X-32 by Etest method
Pseudomonas aeruginosa [23] = test: Antibacterial activity against VIM-1 producing Pseudomonas aeruginosa clone A2 isolate NA-14X-26 by Etest method
Pseudomonas aeruginosa [24] = test: Antibacterial activity against IMP-13 producing Pseudomonas aeruginosa clone C2 isolate NA-14X-02 by Etest method
Pseudomonas aeruginosa [25] = test: Antibacterial activity against VIM-2 producing Pseudomonas aeruginosa clone B1 isolate SS-09X-45 by Etest method
Pseudomonas aeruginosa [26] = test: Antibacterial activity against IMP-13 producing Pseudomonas aeruginosa clone C2 isolate NA-14X-10 by Etest method
Pseudomonas aeruginosa [27] = test: Antibacterial activity against VIM-1 producing Pseudomonas aeruginosa clone A3 isolate NA-14X-34 by Etest method
Pseudomonas aeruginosa [28] = test: Antibacterial activity against VIM-2 producing Pseudomonas aeruginosa clone B3 isolate PV-05X-07 by Etest method
Pseudomonas aeruginosa [29] = test: Antibacterial activity against VIM-1 producing Pseudomonas aeruginosa clone D3 isolate VA-06X-65 by Etest method

Question: Which results are given for NCC[C@H](O)C(=O)N[C@@H]1C[C@H](N)[C@@H](O[C@H]2O[C@H](CN)[C@@H](O)[C@H](O)[C@H]2O)[C@H](O)[C@H]1O[C@H]1O[C@H](CO)[C@@H](O)[C@H](N)[C@H]1O [AMIKACIN]?
Answer: MIC (Pseudomonas aeruginosa [1]): > 128 µg/mL; MIC (Pseudomonas aeruginosa [2]): > 128 µg/mL; MIC (Pseudomonas putida): 1 µg/mL (≈ 1.71 µM); MIC (Pseudomonas aeruginosa [3]): > 128 µg/mL; MIC (Pseudomonas aeruginosa [4]): > 128 µg/mL; MIC (Enterobacter cloacae): 24 µg/mL (≈ 41 µM); MIC (Pseudomonas aeruginosa [5]): 16 µg/mL (≈ 27.3 µM); MIC (Pseudomonas aeruginosa [6]): 8 µg/mL (≈ 13.7 µM); MIC (Pseudomonas aeruginosa [7]): 16 µg/mL (≈ 27.3 µM); MIC (Pseudomonas aeruginosa [8]): > 128 µg/mL; MIC (Pseudomonas aeruginosa [9]): 8 µg/mL (≈ 13.7 µM); MIC (Pseudomonas aeruginosa [10]): 8 µg/mL (≈ 13.7 µM); MIC (Pseudomonas aeruginosa [11]): > 128 µg/mL; MIC (Pseudomonas aeruginosa [12]): 16 µg/mL (≈ 27.3 µM); MIC (Pseudomonas aeruginosa [13]): 8 µg/mL (≈ 13.7 µM); MIC (Pseudomonas aeruginosa [14]): > 128 µg/mL; MIC (Pseudomonas aeruginosa [15]): 8 µg/mL (≈ 13.7 µM); MIC (Pseudomonas aeruginosa [16]): 24 µg/mL (≈ 41 µM); MIC (Pseudomonas aeruginosa [17]): > 128 µg/mL; MIC (Pseudomonas aeruginosa [18]): 8 µg/mL (≈ 13.7 µM); MIC (Pseudomonas aeruginosa [19]): 8 µg/mL (≈ 13.7 µM); MIC (Pseudomonas aeruginosa [20]): 8 µg/mL (≈ 13.7 µM); Activity (Pseudomonas aeruginosa [21]): 50%; MIC (Pseudomonas aeruginosa [22]): 24 µg/mL (≈ 41 µM); MIC (Pseudomonas aeruginosa [23]): 32 µg/mL (≈ 54.6 µM); MIC (Pseudomonas aeruginosa [24]): 16 µg/mL (≈ 27.3 µM); MIC (Pseudomonas aeruginosa [25]): > 128 µg/mL; MIC (Pseudomonas aeruginosa [26]): 16 µg/mL (≈ 27.3 µM); MIC (Pseudomonas aeruginosa [27]): 24 µg/mL (≈ 41 µM); MIC (Pseudomonas aeruginosa [28]): > 128 µg/mL; MIC (Pseudomonas aeruginosa [29]): 8 µg/mL (≈ 13.7 µM)

Question: C[C@H]1[C@H](NC(=O)/C(=N\OC(C)(C)C(=O)O)c2csc(N)n2)C(=O)N1S(=O)(=O)O [AZTREONAM] was tested. Which MIC (Pseudomonas putida) did it give?
Answer: 8 µg/mL (≈ 18.4 µM)

Question: And the Activity (Pseudomonas aeruginosa [21])?
Answer: 75%
